This is an account of results in patent US20040097433A1, “Chroman derivatives for the reduction of inflammation symptoms” (priority 2002, published 2004).

The subject of experiment [1] is ELAM (E-selectin). The experiment is described as follows: Cell-ELAM (E-selectin) assay. The experiment is classed as cell-based. Conditions: Endothelial cell, 6 h, endothelial cells stimulated with LPS and IL-1β for 6 hours; E-selectin antibody ELISA; read-out: EC50 for reducing the expression of ELAM. The source says:
Another useful cell screening assay, exemplified herein in Example 1B, is the E-selectin (ELAM) production assay, which measures activity of test compounds in reducing expression of ELAM in activated endothelial cells. Briefly, endothelial cells are activated by adding known activators such as lipopolysaccharide, TNF-α, or IL-1β, alone or in some combination. Activated cells produce ELAM, which can be measured using, for example, an E-selectin monoclonal antibody-based ELISA assay. In studies carried out in support of the present invention, ELAM production was decreased. As described herein, chroman derivatives were able to reduce ELAM production in an assay such as the one described in Example 1B.
B. Cell-ELAM Assay. Endothelial-Leukocyte Adhesion Molecule (ELAM), also known as E-selectin, is expressed on the surface of endothelial cells. In this assay, lipopolysaccharide (LPS) and IL-1β are used to stimulate the expression of ELAM; test agents are tested for their abilities to reduce this expression, in accordance with studies showing that reduction of leukocyte adhesion to endothelial cell surface is associated with decreased cellular damage (e.g., Takada, M., Et al., Transplantation 64: 1520-25, 1997; Steinberg, J. B., et al., J. Heart Lung Trans. 13:306-313, 1994).
Endothelial cells may be selected from any of a number of sources and cultured according to methods known in the art; including, for example, coronary artery endothelial cells, human brain microvascular endothelial cells (HBMEC; Hess, D. C., et al., Neurosci. Lett. 213(1): 37-40,1996), or lung endothelial cells. Cells are conveniently cultured in 96-well plates. […] Wells are allowed to develop for 35 minutes, before measurement at 402 nm in a Fluoroskan® Reader with shake program for 10 seconds. Positive results are recorded as a decrease in ELAM concentration in tested wells, as compared to control wells.
(ELISA stands for enzyme-linked immunosorbent assay.)

The test system of experiment [2] is CD-1 mice. Description: Arachidonic acid ear inflammation model. In kind it is in vivo, mouse. Conditions: topical to left ear, 20 μL in 70% ethanol/30% propylene glycol; ear punch weight difference one hour after treatment. As for the experimental part:
This assay measures the ability of test compounds to prevent or reduce inflammation secondary to oxazolone or arachidonic acid.
A. Arachidonic acid. Albino male CD-1 mice, 7-9 weeks old were used in this test. A 20% (w/v) arachidonic acid solution in acetone was prepared. Twenty microliters of the arachidonic acid solution was applied to the dorsal left ear of the mouse. Immediately thereafter, test compounds (20 μL in 70% ethanol/30% propylene glycol) were applied to the left ear. The untreated right ears served as control. Mice are sacrificed by CO2 inhalation, one hour after treatment. The left and right ears were removed and 7 mm punch biopsies taken from each. The punch biopsies were weighed, and the differences calculated.

Experiment [3] has as its system CRP. The experiment is described as follows: Human Hep3B cells CRP assay. In kind it is cell-based. Conditions: for reduction of CRP levels (in words): CRP assay of Example 1A; for EC50: Homo sapiens, 72 h, Hep3B cells stimulated with IL-1β, IL-6 and dexamethasone, three days, CRP ELISA on supernatant, normalized to cell count, read-out: EC50 for reducing CRP levels. As for the experimental part: In studies carried out in support of the present invention, a combination of Interleukin-1β, IL-6, and dexamethasone is used to induce CRP production, and counter-agents are tested for their ability to reduce this production in cultured liver cells, as detailed in Example 1A. The assay is performed on cells grown in 96-well format allowing high throughput screening of compounds. As described herein, chroman derivatives were able to reduce CRP levels in an assay such as the one described in Example 1A.
A. Human Hep3B Cells—CRP assay. Hep3B Cell Line is obtained from the American Type Culture Collection (ATCC Catalog No. HB-8064). The Hep3B cell line was derived from liver tissue of […]. The cells are epithelial in morphology and produce tumors in nude mice. The cells produce α-fetoprotein, hepatitis B surface antigen, albumin, α-2-macroglobulin, α-1-antitrypsin, transferrin, plasminogen, complement C3 and β-lipoprotein (Knowles B B, et al., Science, 1980, 209:497499). This cell line has been widely used to study hepatocyte cytokine and acute phase protein release (e.g., Damtew B, et al., 1993, J. Immunol. 150:4001-4007).
HEP3B cells are grown in Minimum Essential Medium (MEM; GIBCO) supplemented with 10% Fetal Bovine Serum (FBS; Hyclone), 1× Penicillin/Streptomycin (GIBCO, Cat#. 15140-122) and 0.1 mM non-essential amino acids (GIBCO, Catalog No. 11140-050). Cells are thawed and transferred to warm medium according to standard methods known in the art.
Cells are incubated in flasks at 37° C. with 5% CO2 in an air atmosphere incubator. HEP3B growth media is changed every 2 days until the cells reach 70-80% confluence (approx. 3-4 days). For assay, the cells are transferred to 96-well plates, seeded at 5000 cells per well in culture media, and left to grow for 7 days in a 37° C. incubator (air supplemented with 5% CO2). Media is replaced daily until assay. […]
100 μl HRP-conjugated rabbit anti-human CRP (DAKO) diluted 1:500 (in CRP wash buffer) is added to each well, followed by incubation for 30 minutes at 37° C. […] Finally, 50 μl of 1M H2SO4 is added to each well and absorbance at 450 nm is immediately measured in a microtiter spectrophotometer.
CRP measured as above is normalized to cell count per well, using a cell viability assay, such as the Cell Tracker Green assay. […] Plates are immediately read using a Fluoroskan® flourometer with a 485 excitation/538 emission filter pair.

Broadly, the EC50 is the midpoint of the concentration-response curve. As to `COC(=O)CCC1(C)CCc2c(Br)c(O)c(C)c(C)c2O1` (stereo not drawn) [3-(5-Bromo-6-hydroxy-2,7,8-trimethyl-chroman-2-yl)-propionic acid methyl ester], the EC50 in experiment [1] is 10 to 100 µM. Further, in experiment [2], the “protection in arachidonic acid ear inflammation assay” value is recorded as “about 40%”.
As to `Cc1c(O)cc2c(c1C)OC(C)(CCC(=O)O)CC2` (stereo not drawn) [3-(6-hydroxy-2,7,8-trimethyl-chroman-2-yl)-propionic acid], in experiment [3], the “reduction of CRP levels (in words)” value was “effective at reducing CRP levels” and the concentration giving a half-maximal response (EC50) lay within 40 to 60 µM.
Consider `COC(=O)CCC1(C)CCc2cc(O)c(C)c(C)c2O1` (stereo not drawn) [3-(6-hydroxy-2,7,8-trimethyl-chroman-2-yl)propionic acid methyl ester], for which, in experiment [3], the “reduction of CRP levels (in words)” value is “effective at reducing CRP levels” and the EC50 was in the range of 10 to 30 µM.
Regarding `CC1(CCC(=O)O)CCc2ccc(O)c(O)c2O1` (stereo not drawn) [3-(7,8-Dihydroxy-2-methyl-chroman-2-yl)-propionic acid], in experiment [1], the EC50 was 10 to 100 µM. The “protection in arachidonic acid ear inflammation assay” value in experiment [2] was “about 40%”.
In the case of `Cc1c(C)c2c(c(C)c1O)CCC(C)(C(=O)NCC1C3CC4CC(C3)CC1C4)O2` (stereo not drawn) [6-Hydroxy-2,5,7,8-tetramethyl-chroman-2-carboxylic acid (adamantan-2-ylmethyl)-amide], the EC50 in experiment [1] lay within 10 to 100 µM.
